Measurements from PubChem BioAssay (NCI).
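Following 48 hours of exposure in 96-well plates, responses at five concentrations were used to interpolate endpoints linearly. At the GI50, growth is halved. TGI is the concentration that stops growth completely.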

Key:
Assay in all cases: NCI-60 cell line screen, 48 h
MOLT-4 leukemia = system: MOLT-4 leukemia
786-0 renal = system: 786-0 renal
UACC-62 melanoma = system: UACC-62 melanoma
SK-MEL-5 melanoma = system: SK-MEL-5 melanoma
HS 578T breast = system: HS 578T breast
K-562 leukemia = system: K-562 leukemia
UACC-257 melanoma = system: UACC-257 melanoma
HCT-116 colon = system: HCT-116 colon
SN12C renal = system: SN12C renal
SNB-19 CNS = system: SNB-19 CNS
BT-549 breast = system: BT-549 breast
NCI-H23 lung = system: NCI-H23 lung
RXF 393 renal = system: RXF 393 renal
DU-145 prostate = system: DU-145 prostate
LOX IMVI melanoma = system: LOX IMVI melanoma
SNB-75 CNS = system: SNB-75 CNS
TK-10 renal = system: TK-10 renal
CAKI-1 renal = system: CAKI-1 renal
SF-268 CNS = system: SF-268 CNS
ACHN renal = system: ACHN renal
NCI-H460 lung = system: NCI-H460 lung
SW-620 colon = system: SW-620 colon
A549 NSCLC = system: A549 NSCLC
NCI-H522 lung = system: NCI-H522 lung
COLO 205 colon = system: COLO 205 colon
SK-OV-3 ovarian = system: SK-OV-3 ovarian
SF-539 CNS = system: SF-539 CNS
M14 melanoma = system: M14 melanoma
OVCAR-5 ovarian = system: OVCAR-5 ovarian
MDA-MB-435 = system: MDA-MB-435
RPMI-8226 leukemia = system: RPMI-8226 leukemia
OVCAR-8 ovarian = system: OVCAR-8 ovarian
MCF7 breast = system: MCF7 breast
HL-60(TB) leukemia = system: HL-60(TB) leukemia
HT29 colon = system: HT29 colon
T-47D breast = system: T-47D breast
MALME-3M melanoma = system: MALME-3M melanoma
HCT-15 colon = system: HCT-15 colon
U251 CNS = system: U251 CNS
SF-295 CNS = system: SF-295 CNS
SK-MEL-28 melanoma = system: SK-MEL-28 melanoma
EKVX NSCLC = system: EKVX NSCLC
A498 renal = system: A498 renal
UO-31 renal = system: UO-31 renal
KM12 colon = system: KM12 colon
IGROV1 ovarian = system: IGROV1 ovarian
SK-MEL-2 melanoma = system: SK-MEL-2 melanoma
HCC-2998 colon = system: HCC-2998 colon
OVCAR-4 ovarian = system: OVCAR-4 ovarian
OVCAR-3 ovarian = system: OVCAR-3 ovarian
CCRF-CEM leukemia = system: CCRF-CEM leukemia
PC-3 prostate = system: PC-3 prostate
NCI-H226 lung = system: NCI-H226 lung
HOP-92 NSCLC = system: HOP-92 NSCLC
MDA-MB-231 breast = system: MDA-MB-231 breast
NCI/ADR-RES ovarian = system: NCI/ADR-RES ovarian

COc1cc(N=Nc2cc(Cc3ccc(N(C)C)cc3)c(N)cc2N(C)C)c2ncccc2c1
GI50 (MOLT-4 leukemia): 0.185 µM | TGI (MOLT-4 leukemia): 1.22 µM | GI50 (786-0 renal): 1.01 µM | TGI (786-0 renal): 2.25 µM | GI50 (UACC-62 melanoma): 0.42 µM | TGI (UACC-62 melanoma): 1.83 µM | GI50 (SK-MEL-5 melanoma): 0.227 µM | TGI (SK-MEL-5 melanoma): 0.714 µM | GI50 (HS 578T breast): 0.473 µM | TGI (HS 578T breast): 2.35 µM | GI50 (K-562 leukemia): 0.139 µM | TGI (K-562 leukemia): 1.74 µM | GI50 (UACC-257 melanoma): 0.438 µM | TGI (UACC-257 melanoma): 5.22 µM | GI50 (HCT-116 colon): 0.0426 µM | TGI (HCT-116 colon): 1.19 µM | GI50 (SN12C renal): 0.649 µM | TGI (SN12C renal): 2.32 µM | GI50 (SNB-19 CNS): 0.577 µM | TGI (SNB-19 CNS): 3.71 µM | GI50 (BT-549 breast): 1.41 µM | TGI (BT-549 breast): 5.63 µM | GI50 (NCI-H23 lung): 0.287 µM | TGI (NCI-H23 lung): 1.34 µM | GI50 (RXF 393 renal): 1.08 µM | TGI (RXF 393 renal): 2.49 µM | GI50 (DU-145 prostate): 0.59 µM | TGI (DU-145 prostate): 2.17 µM | GI50 (LOX IMVI melanoma): 0.465 µM | TGI (LOX IMVI melanoma): 1.87 µM | GI50 (SNB-75 CNS): 0.574 µM | TGI (SNB-75 CNS): 2.04 µM | GI50 (TK-10 renal): 1.62 µM | TGI (TK-10 renal): 4.36 µM | GI50 (CAKI-1 renal): 0.408 µM | TGI (CAKI-1 renal): 2.37 µM | GI50 (SF-268 CNS): 0.593 µM | TGI (SF-268 CNS): 2.31 µM | GI50 (ACHN renal): 0.233 µM | TGI (ACHN renal): 1.69 µM | GI50 (NCI-H460 lung): 0.519 µM | TGI (NCI-H460 lung): 1.91 µM | GI50 (SW-620 colon): 0.374 µM | TGI (SW-620 colon): 2.16 µM | GI50 (A549 NSCLC): 0.494 µM | TGI (A549 NSCLC): 2.39 µM | GI50 (NCI-H522 lung): 0.398 µM | TGI (NCI-H522 lung): 2.23 µM | GI50 (COLO 205 colon): 0.176 µM | TGI (COLO 205 colon): 1.21 µM | GI50 (SK-OV-3 ovarian): 0.406 µM | TGI (SK-OV-3 ovarian): 8.17 µM | GI50 (SF-539 CNS): 0.705 µM | TGI (SF-539 CNS): 2.06 µM | GI50 (M14 melanoma): 0.34 µM | TGI (M14 melanoma): 1.58 µM | GI50 (OVCAR-5 ovarian): 0.801 µM | TGI (OVCAR-5 ovarian): 2.66 µM | GI50 (MDA-MB-435): 0.515 µM | TGI (MDA-MB-435): 2.07 µM | GI50 (RPMI-8226 leukemia): 0.313 µM | TGI (RPMI-8226 leukemia): 2.1 µM | GI50 (OVCAR-8 ovarian): 0.387 µM | TGI (OVCAR-8 ovarian): 2.19 µM | GI50 (MCF7 breast): 0.21 µM | TGI (MCF7 breast): 0.855 µM | GI50 (HL-60(TB) leukemia): 0.267 µM | TGI (HL-60(TB) leukemia): 1.36 µM | GI50 (HT29 colon): 0.0607 µM | TGI (HT29 colon): 2.4 µM | GI50 (T-47D breast): 0.211 µM | TGI (T-47D breast): 2 µM | GI50 (MALME-3M melanoma): 0.621 µM | TGI (MALME-3M melanoma): 2.28 µM | GI50 (HCT-15 colon): 0.195 µM | TGI (HCT-15 colon): 1.99 µM | GI50 (U251 CNS): 0.466 µM | TGI (U251 CNS): 1.94 µM | GI50 (SF-295 CNS): 0.618 µM | TGI (SF-295 CNS): 2 µM | GI50 (SK-MEL-28 melanoma): 0.745 µM | TGI (SK-MEL-28 melanoma): 2.2 µM | GI50 (EKVX NSCLC): 0.332 µM | TGI (EKVX NSCLC): 1.98 µM | GI50 (A498 renal): 0.809 µM | TGI (A498 renal): 3.07 µM | GI50 (UO-31 renal): 0.252 µM | TGI (UO-31 renal): 1.97 µM | GI50 (KM12 colon): 0.646 µM | TGI (KM12 colon): 2.31 µM | GI50 (IGROV1 ovarian): 0.364 µM | TGI (IGROV1 ovarian): 1.57 µM | GI50 (SK-MEL-2 melanoma): 0.562 µM | TGI (SK-MEL-2 melanoma): 4.17 µM | GI50 (HCC-2998 colon): 1.16 µM | TGI (HCC-2998 colon): 2.66 µM | GI50 (OVCAR-4 ovarian): 0.175 µM | TGI (OVCAR-4 ovarian): 0.549 µM | GI50 (OVCAR-3 ovarian): 0.0406 µM | TGI (OVCAR-3 ovarian): 1.08 µM | GI50 (CCRF-CEM leukemia): 0.126 µM | TGI (CCRF-CEM leukemia): 2.29 µM | GI50 (PC-3 prostate): 0.293 µM | TGI (PC-3 prostate): 3.03 µM | GI50 (NCI-H226 lung): 0.754 µM | TGI (NCI-H226 lung): 8.28 µM | GI50 (HOP-92 NSCLC): 0.266 µM | TGI (HOP-92 NSCLC): 1.5 µM | GI50 (MDA-MB-231 breast): 0.512 µM | TGI (MDA-MB-231 breast): 2.17 µM | GI50 (NCI/ADR-RES ovarian): 0.338 µM | TGI (NCI/ADR-RES ovarian): 1.57 µM
